Experimental data from patent publication US6630500B2, “Selected fused pyrrolocarbazoles” (Cephalon, Inc., priority 2000, dated 2003).

Key:
Assay type in all cases: biochemical
[1] = molecular target: T1, VEGF receptor (human flk-1, KDR, VEGFR2) kinase domain (Homo sapiens, UniProt P35968); assay: Inhibition of VEGF receptor kinase activity (ELISA); settings: 40 μM ATP; for inhibition at 0.3 µM: 300 nM compound, read-out: VEGFR2 % inh. @ 300 nM; for IC50: values without % sign
T1 construct: VEGF receptor (human flk-1, KDR, VEGFR2) kinase domain; made in house
T1 sequence (P35968 834-1162 limits assumed): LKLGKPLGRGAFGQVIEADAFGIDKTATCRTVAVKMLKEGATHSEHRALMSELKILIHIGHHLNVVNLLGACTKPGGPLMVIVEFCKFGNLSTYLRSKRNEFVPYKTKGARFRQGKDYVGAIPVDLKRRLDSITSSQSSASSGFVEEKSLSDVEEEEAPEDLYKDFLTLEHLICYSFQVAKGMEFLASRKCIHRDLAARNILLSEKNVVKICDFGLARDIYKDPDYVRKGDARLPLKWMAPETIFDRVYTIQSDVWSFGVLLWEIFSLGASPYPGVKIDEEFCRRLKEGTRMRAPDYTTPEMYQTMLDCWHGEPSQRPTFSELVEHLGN
Protocol: Fused pyrrolocarbazole compounds were examined for their inhibitory effects on the kinase activity of baculovirus-expressed VEGF receptor (human flk-1, KDR, VEGFR2) kinase domain using the procedure described for the trkA kinase ELISA assay described below. The kinase reaction mixture, consisting of 50 mM Hepes, pH 7.4, 40 μM ATP, 10 mM MnCl2, 0.1% BSA, 2% DMSO, and various concentrations of inhibitor, was transferred to PLC-γ/GST-coated plates. VEGFR kinase was added and the reaction was allowed to proceed for 15 min. at 37° C. Detection of phosphorylated product was accomplished by addition of anti-phosphotyrosine antibody (UBI). A secondary enzyme-conjugated antibody was delivered to capture the antibody-phosphorylated PLC-γ/GST complex. The activity of the bound enzyme was measured via an amplified detection system (Gibco-BRL). Inhibition data were analyzed using the sigmoidal dose-response (variable slope) equation in GraphPad Prism.
Selected isomeric fused pyrrolocarbazole and isoindolone compounds can be tested for their ability to inhibit the kinase activity of baculovirus-expressed human trkA cytoplasmic domain using an ELISA-based assay as previously described (Angeles et al., Anal. Biochem. 236: 49-55, 1996). Briefly, the 96-well microtiter plate is coated with substrate solution (recombinant human phospholipase C-γl/glutathione S-transferase fusion protein (Rotin et al., EMBO J., 11: 559-567, 1992). Inhibition studies are performed in 100 μl assay mixtures containing 50 mM Hepes, pH 7.4, 40 μM ATP, 10 mM MnCl2, 0.1% BSA, 2% DMSO, and various concentrations of inhibitor. The reaction is initiated by addition of trkA kinase and allowed to proceed for 15 minutes at 37° C. An antibody to phosphotyrosine (UBI) is then added, followed by a secondary enzyme-conjugated antibody, alkaline phosphatase-labelled goat anti-mouse IgG (Bio-Rad). The activity of the bound enzyme is measured via an amplified detection system (Gibco-BRL). Inhibition data are analyzed using the sigmoidal dose-response (variable slope) equation in GraphPad Prism.

MLK1 = molecular target: T2, MLK1 (Homo sapiens, UniProt P80192); assay: Inhibition of Mixed Lineage Kinase-1 (MLK1) activity; settings: 60 μM ATP; for IC50: values without % sign; for inhibition at 0.1 µM: 100 nM compound
T2 construct: 1 μg/ml of baculoviral GST-MLK1KD; GST (N); made in house
T2 sequence (P80192 144-412 limits assumed, species assumed): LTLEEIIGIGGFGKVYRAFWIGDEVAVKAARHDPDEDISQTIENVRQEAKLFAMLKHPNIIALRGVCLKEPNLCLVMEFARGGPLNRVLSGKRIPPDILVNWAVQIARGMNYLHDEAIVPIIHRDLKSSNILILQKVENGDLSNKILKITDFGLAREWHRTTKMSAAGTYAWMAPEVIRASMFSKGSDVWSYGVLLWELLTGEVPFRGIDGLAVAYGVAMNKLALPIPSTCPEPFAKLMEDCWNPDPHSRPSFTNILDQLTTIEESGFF
Protocol: The kinase activity of MLK1 was assessed using the Millipore Multiscreen TCA “in-plate” format as described for protein kinase C (Pitt & Lee, J. Biomol. Screening, 1: 47-51, 1996). Briefly, each 50-μl assay mixture contained 20 mM Hepes, pH 7.2, 5 mM EGTA, 15 mM MgCl2, 25 mM β-glycerophosphate, 60 μM ATP, 0.25 μCi [γ-^32P]ATP, 0.1% BSA, 500 μ/ml myelin basic protein (UBI #13-104), 2% DMSO, […], and 1 μg/ml of baculoviral GST-MLK1KD. Samples were incubated for 15 min at 37° C. The reaction was stopped by adding ice cold 50% TCA and the proteins were allowed to precipitate for 30 min at 4° C. The plates were then washed with ice cold 25% TCA. Supermix scintillation cocktail was added, and the plates were allowed to equilibrate for 1-2 hours prior to counting using the Wallac MicroBeta 1450 PLUS scintillation counter.

MLK3 = molecular target: T3, MLK3 (Homo sapiens, UniProt Q16584); assay: Inhibition of Mixed Lineage Kinase-3 (MLK3) activity; settings: 100 μM ATP; for inhibition at 0.1 µM: 100 nM compound; for IC50: values without % sign
T3 construct: 2 μg/ml of baculoviral GST-MLK3KD; GST (N); made in house
T3 sequence (Q16584 117-379 limits assumed, species assumed): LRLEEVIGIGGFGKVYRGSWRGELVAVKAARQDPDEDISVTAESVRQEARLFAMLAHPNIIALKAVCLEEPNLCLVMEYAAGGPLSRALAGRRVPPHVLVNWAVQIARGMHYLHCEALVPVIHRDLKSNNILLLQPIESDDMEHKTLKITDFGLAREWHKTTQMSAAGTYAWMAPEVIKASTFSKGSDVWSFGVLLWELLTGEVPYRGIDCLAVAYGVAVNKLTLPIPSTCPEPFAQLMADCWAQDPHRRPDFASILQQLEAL
Protocol: (§1) The kinase activity of MLK1 was assessed using the Millipore Multiscreen TCA “in-plate” format as described for protein kinase C (Pitt & Lee, J. Biomol. Screening, 1: 47-51, 1996). Briefly, each 50-μl assay mixture contained 20 mM Hepes, pH 7.2, 5 mM EGTA, 15 mM MgCl2, 25 mM β-glycerophosphate, 60 μM ATP, 0.25 μCi [γ-^32P]ATP, 0.1% BSA, 500 μ/ml myelin basic protein (UBI #13-104), 2% DMSO, 1 μM of test compound, and 1 μg/ml of baculoviral GST-MLK1KD. Samples were incubated for 15 min at 37° C. The reaction was stopped by adding ice cold 50% TCA and the proteins were allowed to precipitate for 30 min at 4° C. The plates were then washed with ice cold 25% TCA. Supermix scintillation cocktail was added, and the plates were allowed to equilibrate for 1-2 hours prior to counting using the Wallac MicroBeta 1450 PLUS scintillation counter.
(§2) Assays were performed using the Millipore Multiscreen plate format as described for MLK1. Briefly, each 50-μl assay mixture contained 20 mM Hepes, pH 7.2, 5 mM EGTA, 15 mM MgCl2, 25 mM β-glycerophosphate, 100 μM ATP, 0.25 μCi [γ-^32P]ATP, 0.1% BSA, 500 μg/ml myelin basic protein (UBI #13-104), 2% DMSO, various concentrations of test compound, and 2 μg/ml of baculoviral GST-MLK3KD. Sample were incubated for 15 min at 37° C. The reaction was stopped by adding ice cold 50% TCA and the proteins were allowed to precipitate for 30 min at 4° C. The plates were then washed with ice cold 25% TCA. Supermix scintillation cocktail was added, and the plates were allowed to equilibrate for 1-2 hours prior to counting.

MLK2 = molecular target: T4, MLK2 (Homo sapiens, UniProt Q02779); assay: Inhibition of Mixed Lineage Kinase-2 (MLK2) activity; settings: 100 nM compound; 100 μM ATP
T4 construct: fused on or other part: GST tag
T4 sequence (Q02779 98-440 limits assumed): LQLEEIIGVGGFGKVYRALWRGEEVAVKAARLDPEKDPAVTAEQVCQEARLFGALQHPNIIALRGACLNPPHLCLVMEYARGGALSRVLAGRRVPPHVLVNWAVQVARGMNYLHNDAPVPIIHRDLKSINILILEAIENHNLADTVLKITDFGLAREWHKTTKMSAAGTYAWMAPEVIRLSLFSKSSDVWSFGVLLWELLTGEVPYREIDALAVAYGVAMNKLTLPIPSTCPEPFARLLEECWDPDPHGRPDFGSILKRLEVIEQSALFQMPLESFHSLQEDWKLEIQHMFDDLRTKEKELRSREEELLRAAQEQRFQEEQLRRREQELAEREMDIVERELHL
Protocol: as §1
as §2, with “MLK1. Each” for “MLK1. Briefly, each”, “and 3” for “and 2”, “baculoviral GST-MLK2KDLZ. Samples” for “baculoviral GST-MLK3KD. Sample”, “15 min.” for “15 min”

| SMILES | inhibition at 0.3 µM [1] [%] | IC50 (MLK1) [nM] | inhibition at 0.1 µM (MLK3) [%] | IC50 [1] [nM] | IC50 (MLK3) [nM] | inhibition at 0.1 µM (MLK1) [%] | inhibition at 0.1 µM (MLK2) [%] |
| --- | --- | --- | --- | --- | --- | --- | --- |
| COC(C)c1ccc2[nH]c3c4c(c5c(c3c2c1)CNC5=O)-c1ccccc1C4 (racemic) [Compound 36] | 12 | 26 | 41 | – | – | – | – |
| CCOC(C)c1ccc2c(c1)c1c3c(c4c(c1n2CCCO)Cc1ccccc1-4)C(=O)NC3 (single isomer, unassigned) [Compound 11] | – | 78 | – | 65 | 20 | – | – |
| CCOCc1ccc2[nH]c3c4c(c5c(c3c2c1)CNC5=O)-c1ccccc1C4C(C)O (single isomer, unassigned) [Compound 14] | – | – | – | 72 | 9 | 93 | – |
| CCOCc1ccc2c(c1)c1c3c(c4c(c1n2CCCO)Cc1ccccc1-4)C(=O)NC3 [Compound 1] | – | 21 | – | 4 | 4 | – | – |
| COCc1ccc2c(c1)c1c3c(c4c(c1n2CCCO)Cc1ccccc1-4)C(=O)NC3 [Compound 2] | – | 15 | – | 17 | 8 | – | – |
| CC(C)OCc1ccc2c(c1)c1c3c(c4c(c1n2CCCO)Cc1ccccc1-4)C(=O)NC3 [Compound 3] | – | 17 | – | 7 | 9 | – | – |
| CCC(C)OCc1ccc2c(c1)c1c3c(c4c(c1n2CCCO)Cc1ccccc1-4)C(=O)NC3 (stereo not shown) [Compound 4] | – | 15 | – | 12 | 4 | – | – |
| CCOCc1ccc2c(c1)c1c3c(c4c(c1n2CC(C)O)Cc1ccccc1-4)C(=O)NC3 (stereo not shown) [Compound 7] | – | – | – | 25 | 30 | 85 | – |
| CCCCOCc1ccc2c(c1)c1c3c(c4c(c1n2CCCO)Cc1ccccc1-4)C(=O)NC3 [Compound 9] | – | 26 | – | 18 | 15 | – | – |
| CCOC(C)c1ccc2c(c1)c1c3c(c4c(c1n2CCCO)Cc1ccccc1-4)C(=O)NC3 (stereo not shown) [Compound 10] | – | 37 | – | 83 | 15 | – | – |
| CCCCOC(C)c1ccc2c(c1)c1c3c(c4c(c1n2CCCO)Cc1ccccc1-4)C(=O)NC3 (stereo not shown) [Compound 15] | – | 41 | – | 130 | 27 | – | – |
| CC(C)OC(C)c1ccc2c(c1)c1c3c(c4c(c1n2CCCO)Cc1ccccc1-4)C(=O)NC3 (stereo not shown) [Compound 16] | – | – | 49 | 411 | – | 66 | – |
| CC(C)(C)OCc1ccc2c(c1)c1c3c(c4c(c1n2CCCO)Cc1ccccc1-4)C(=O)NC3 [Compound 17] | – | 35 | – | 11 | – | – | 50 |
| CC(C)OCc1ccc2c(c1)c1c3c(c4c(c1n2CCCOC(=O)CN)Cc1ccccc1-4)C(=O)NC3 [Compound 18] | – | 47 | – | 23 | 23 | – | – |
| CC(C)OCc1ccc2c(c1)c1c3c(c4c(c1n2CCCOC(=O)C(N)CCCCN)Cc1ccccc1-4)C(=O)NC3 (stereo not shown) [Compound 19] | 60 | – | – | – | – | 44 | 28 |
| CC(C)OCc1ccc2c(c1)c1c3c(c4c(c1n2CCCOC(=O)CCCN(C)C)Cc1ccccc1-4)C(=O)NC3 [Compound 21] | 48 | – | – | – | – | 40 | – |

| SMILES | inhibition at 0.3 µM [1] [%] | IC50 (MLK1) [nM] | inhibition at 0.1 µM (MLK3) [%] | IC50 [1] [nM] | IC50 (MLK3) [nM] | inhibition at 0.1 µM (MLK1) [%] | inhibition at 0.1 µM (MLK2) [%] |
| --- | --- | --- | --- | --- | --- | --- | --- |
| CC(C)OCc1ccc2c(c1)c1c3c(c4c(c1n2CCCOC(=O)CCCCCN)Cc1ccccc1-4)C(=O)NC3 [Compound 23] | 57 | – | – | – | – | 31 | – |
| CCSCc1ccc2c(c1)c1c3c(c4c(c1n2CCO)Cc1ccccc1-4)C(=O)NC3 [Compound 24] | 31 | – | 55 | – | – | 62 | – |
| CCSCc1ccc2c(c1)c1c3c(c4c(c1n2CCCO)Cc1ccccc1-4)C(=O)NC3 [Compound 25] | – | 22 | – | 21 | 12 | – | – |
| CC(C)SCc1ccc2c(c1)c1c3c(c4c(c1n2CCCO)Cc1ccccc1-4)C(=O)NC3 [Compound 27] | – | 22 | – | 57 | – | – | – |
| O=C1NCc2c1c1c(c3c2c2cc(CO)ccc2n3CCO)Cc2ccccc2-1 [Compound 28] | 34 | 76 | – | – | 74 | – | – |
| O=C1NCc2c1c1c(c3[nH]c4ccc(CO)cc4c23)Cc2ccccc2-1 [Compound 30] | – | 30 | – | 302 | – | – | – |
| CCOCc1ccc2[nH]c3c4c(c5c(c3c2c1)CNC5=O)-c1ccccc1C4 [Compound 31] | – | 46 | – | 77 | 29 | – | – |
| CC(C)OCc1ccc2[nH]c3c4c(c5c(c3c2c1)CNC5=O)-c1ccccc1C4 [Compound 32] | 33 | 24 | – | – | 19 | – | – |
| CC(O)c1ccc2c(c1)c1c3c(c4c(c1n2CCCO)Cc1ccccc1-4)C(=O)NC3 (stereo not shown) [Compound 33] | – | 50 | – | 111 | 16 | – | – |
| CCC(O)c1ccc2c(c1)c1c3c(c4c(c1n2CCCO)Cc1ccccc1-4)C(=O)NC3 (stereo not shown) [Compound 34] | – | – | 32 | 7 | – | 45 | – |
| CC(O)c1ccc2[nH]c3c4c(c5c(c3c2c1)CNC5=O)-c1ccccc1C4 (stereo not shown) [Compound 35] | 37 | – | 62 | – | – | 60 | – |
| CCCSCc1ccc2c(c1)c1c3c(c4c(c1n2CCCOC(=O)C(F)(F)F)Cc1ccccc1-4)C(=O)NC3 [Compound 37] | 37 | 17 | – | – | – | – | – |
| O=C1NCc2c1c1c(c3c2c2cc(CSc4ccccn4)ccc2n3CCCO)Cc2ccccc2-1 [Compound 38] | 45 | – | – | – | 30 | 58 | – |
| O=C1NCc2c1c1c(c3c2c2cc(CSc4ncccn4)ccc2n3CCCO)Cc2ccccc2-1 [Compound 39] | 13 | – | 56 | – | – | 55 | – |
| COc1ccc2[nH]c3c4c(c5c(c3c2c1)CNC5=O)-c1ccccc1C4 [D, reference compound] | – | 45 | 43 | 200 | – | – | – |
